# Reference: ChEMBL document CHEMBL3706496, “Therapeutic Drugs” (1999)
# How the values were obtained:
# Assay type in all cases: ADME, organism-based
# [1] = Percentage of administered dose recovered as idarubicinol in urine after intravenous administration; parameters: dosed compound id 2.58283e+06, dosed compound name Idarubicin, route intravenous; conditions: human, in vivo
# [2] = Percentage of administered dose recovered as idarubicinol in urine after oral administration; parameters: dosed compound id 2.58283e+06, dosed compound name Idarubicin, route oral; conditions: human, in vivo
# [3] = Percentage of administered dose recovered as dicarboxylic acid derivative of mitoxantrone in urine within 48 h of drug administration; conditions: human, in vivo
# [4] = Percentage of administered dose recovered as unchanged drug in urine within 48 h of drug administration; parameters: dosed compound id 2.58283e+06, dosed compound name Mitoxantrone; conditions: human, read-out: Compound recovery
# [5] = Percentage of administered dose recovered as monocarboxylic acid derivative of mitoxantrone in urine within 48 h of drug administration; parameters: dosed compound id 2.58283e+06, dosed compound name Mitoxantrone; conditions: human, in vivo
# [6] = Percentage of administered dose recovered as unchanged drug in urine after intravenous administration; parameters: dosed compound id 2.58283e+06, dosed compound name Idarubicin, route intravenous; conditions: human, read-out: Compound recovery
# [7] = Percentage of administered dose recovered as unchanged drug in urine after oral administration; parameters: dosed compound id 2.58283e+06, dosed compound name Idarubicin, route oral; conditions: human, read-out: Compound recovery
structure (smiles),measurement,setting,value
CC(O)[C@]1(O)Cc2c(O)c3c(c(O)c2[C@@H](O[C@H]2C[C@H](N)[C@H](O)[C@H](C)O2)C1)C(=O)c1ccccc1C3=O (some centres not stated),Compound recovery,[1],15%
same,Compound recovery,[2],5%
O=C(O)CNCCNc1ccc(NCCNCC(=O)O)c2c1C(=O)c1c(O)ccc(O)c1C2=O,Compound recovery,[3],0.3%
O=C1c2c(O)ccc(O)c2C(=O)c2c(NCCNCCO)ccc(NCCNCCO)c21 [MITOXANTRONE],dose excreted at 48 h,[4],4.4%
O=C(O)CNCCNc1ccc(NCCNCCO)c2c1C(=O)c1c(O)ccc(O)c1C2=O,Compound recovery,[5],0.5%
CC(=O)[C@]1(O)Cc2c(O)c3c(c(O)c2[C@@H](O[C@H]2C[C@H](N)[C@H](O)[C@H](C)O2)C1)C(=O)c1ccccc1C3=O [IDARUBICIN],dose excreted,[6],2%
same,dose excreted,[7],0.6%
